Among the data in the Deep4Chem optical property database are photoluminescence quantum yield values, retold here.

A short description of the series: photoluminescence quantum yield (fraction); solvent given as SMILES.

For the molecule `CCCCCCCc1ccc(C2=[N+]3C(=C4c5cc(OCC(CC)CC)c(-c6ccc(CCCCCCC)o6)n5[B-](F)(F)[n+]5nnn(c54)[B-]3(F)F)C=C2OCC(CC)CC)o1`, the photoluminescence quantum yield is, setting by setting: (in C1CCOC1) 0.04; (in ClCCl) 0.02.
`COc1cccc(-c2nc3c([nH]2)C2=CC(=O)S[C@]2(C)[C@@]2(C)SC(=O)C=C32)c1OC`: the photoluminescence quantum yield (in CC#N) came out at 0.12.
In turn, `CN(C)c1ccc(-c2ccc(-c3cc(N4CCCCC4)c(C#N)c4c3-c3ccccc3CC4)s2)cc1` returned a photoluminescence quantum yield (in C1CCOC1) of 0.85.
As to `COc1ncccc1B(O)O`, the photoluminescence quantum yield reads like this: (in C1COCCO1) 0.423; (in CC(C)O) 0.549; (in CCCCCC) 0.502; (in CCCCCCC) 0.689; (in CCCCCCCC) 0.701; (in CCCCCCCCO) 0.317. Also, the photoluminescence quantum yield by setting is: (in CCO) 0.783; (in CO) 0.518.
`COc1ccc2c(c1)CCC1=C(C#Cc3ccccc3)O[B-](F)(F)[O+]=C12` yielded a photoluminescence quantum yield (in ClCCl) of 0.8.
For `c1ccc(C2CCN3COc4c5ccccc5c5c6c7c(c2c3c46)C(c2ccccc2)CCN7CO5)cc1` (stereo unspecified), the photoluminescence quantum yield (in C1CCCCC1) amounted to 0.715; the photoluminescence quantum yield (in C1CCOC1) stood at 0.124; the photoluminescence quantum yield (in C1COCCO1) was found to be 0.183; the photoluminescence quantum yield (in CC#N) came to 0.025; the photoluminescence quantum yield (in CC(C)=O) stood at 0.046; the photoluminescence quantum yield (in CCOC(C)=O) was 0.108. This molecule also had a photoluminescence quantum yield (in CCOCC) of 0.227; a photoluminescence quantum yield (in CN(C)C=O) of 0.039; a photoluminescence quantum yield (in CO) of 0.023; a photoluminescence quantum yield (in CS(C)=O) of 0.026; a photoluminescence quantum yield (in Cc1ccccc1) of 0.871; a photoluminescence quantum yield (in ClC(Cl)Cl) of 0.053. The molecule further yielded a photoluminescence quantum yield (in ClCCl) of 0.066.
In turn, `COC(=O)c1c(C(=O)OC)c2ccc(C)nn2c1C` showed a photoluminescence quantum yield (in CCCCCC) of 0.348.
`COC(=O)c1ccc(/C=C2\C=C(c3ccc(OC)c(OC)c3)OC2=O)cc1` registered a photoluminescence quantum yield (in C1COCCO1) of 0.355.
`CCCCCC(=O)c1cccc2sc3c(c12)P(=O)(c1ccccc1)c1ccccc1-3` (stereo unspecified) came in with a photoluminescence quantum yield (in ClCCl) of 0.13.
As for `C[Si](C)(C)[Si](C)(C)c1c2ccccc2cc2ccccc12`, the photoluminescence quantum yield turned out to be 0.92 (in C1CCCCC1) and 0.65 (in CC#N).
As to `CC(C)CCC[C@@H](C)[C@H]1CC[C@H]2[C@@H]3CC=C4C[C@@H](OC(=O)Oc5cc(/C=C/C=C/c6ccc(N(C)C)cc6)ccc5[N+](=O)[O-])CC[C@]4(C)[C@H]3CC[C@]12C`, the photoluminescence quantum yield is, setting by setting: (in C1CCCCC1) 0.29; (in C1COCCO1) 0.08; (in CCCCCCC) 0.28; (in Cc1ccccc1) 0.17.
`CCCCCCC(CCCCCC)N1C(=O)c2cccc3c(-c4ccc([Si](C)(C)C)cc4)ccc(c23)C1=O` displayed a photoluminescence quantum yield (in CCCCCC) of 0.14; a photoluminescence quantum yield (in CCCCCCCCCCCCCC) of 0.18; a photoluminescence quantum yield (in CCCCCCCCCCCO) of 0.85; a photoluminescence quantum yield (in CCCCO) of 0.89; a photoluminescence quantum yield (in CN(C)C=O) of 0.64; a photoluminescence quantum yield (in Cc1ccccc1) of 0.51. The molecule further came in with a photoluminescence quantum yield (in ClC(Cl)Cl) of 0.79.
On to `COc1ccc(C2=CC(c3ccc4ccccc4c3)=[O+][B-](C(C)=O)(C(C)=O)O2)cc1`, for which the photoluminescence quantum yield reads like this: (in CC#N) 0.6; (in ClC(Cl)(Cl)Cl) 0.8.
Consider `CN(C)c1ccc(-c2ccc(C#N)s2)s1`, for which, for the setting “in CCO”, the photoluminescence quantum yield turned out to be 0.23.
As to `c1ccc(-c2nc(-c3ccccn3)[se]c2N(c2ccccc2)c2ccccc2)cc1`, the photoluminescence quantum yield (in ClC(Cl)Cl) worked out at 0.113.
In turn, `COC(=O)c1[nH]c(-c2ccccc2)c2nnc3ccc(OC)cc3c12` returned a photoluminescence quantum yield (in ClCCl) of 0.0207.
For `C(C#Cc1ccc2ccc3cccc4ccc1c2c34)#Cc1cccc2ccccc12`, the photoluminescence quantum yield was determined as 0.84 (in C1CCCCC1), 0.73 (in CC#N), 0.55 (in CO) and 0.64 (in ClCCl).
Under “in CC(C)O”, `CC[n+]1c(C=C2C(=O)C(C=C3Sc4cc(Cl)ccc4N3C)=C2[O-])[se]c2ccccc21` displayed a photoluminescence quantum yield of 0.17.
Take `CC1(C)C(/C=C/C2=C(Cl)C(=C/C=C3/N(CCCCCC(=O)O)c4ccccc4C3(C)C)/CCC2)=[N+](CCCCCC(=O)O)c2ccccc21`: for the setting “in CCO”, the photoluminescence quantum yield came out at 0.119.
In the case of `Cn1c(=O)c(/N=N/c2cc(S(=O)(=O)O)ccc2C(=O)O)c(O)c2ccccc21`, under “in CS(C)=O”, the photoluminescence quantum yield was 0.06.
As for `O=C(O)COc1cccc(OCC(=O)O)c1-c1c2ccc(=[N+]3CCCCC3)cc-2oc2cc(N3CCCCC3)ccc12`, the photoluminescence quantum yield is 0.49 (in CCO) and 0.13 (in O).
`Nc1ccc(C#Cc2ccc3ccc4ccc(C#Cc5ccc(N)cc5)c5ccc2c3c45)cc1` yielded a photoluminescence quantum yield (in CCCCCC) of 0.466, a photoluminescence quantum yield (in CO) of 0.199 and a photoluminescence quantum yield (in ClCCl) of 0.646.
In the case of `CC1(C)c2ccccc2N(c2ccc(-c3nc4c(C#N)ccc(C#N)c4nc3-c3ccc(N4c5ccccc5C(C)(C)c5ccccc54)cc3)cc2)c2ccccc21`, the photoluminescence quantum yield (in Cc1ccccc1) amounted to 0.72.
Regarding `O=C1O[B-]2(OC1=O)OC(c1ccc3ccccc3c1)=CC(c1ccc3ccccc3c1)=[O+]2`, the photoluminescence quantum yield is, setting by setting: (in CC#N) 0.3; (in ClC(Cl)(Cl)Cl) 0.8.
As to `NS(=O)(=O)c1ccc(N2N=C(c3ccc(O)cc3)CC2c2ccccc2)cc1` (stereo unspecified), the photoluminescence quantum yield is 0.65 (in C1CCOC1); 0.63 (in C1COCCO1); 0.6 (in CC#N); 0.44 (in CC(C)O); 0.36 (in CCO); 0.66 (in CCOC(C)=O). The photoluminescence quantum yield is, setting by setting: (in CN(C)C=O) 0.68; (in CO) 0.28; (in CS(C)=O) 0.7; (in O) 0.41.
As for `CC1(C)CC(=O)C2=C(C1)Oc1ccc3cc(O)ccc3c1C2c1ccccn1` (stereo unspecified), the photoluminescence quantum yield (in C1CCOC1) turned out to be 0.062; the photoluminescence quantum yield (in C1COCCO1) turned out to be 0.028; the photoluminescence quantum yield (in CC#N) worked out at 0.082; the photoluminescence quantum yield (in CCCCCCC) turned out to be 0.05; the photoluminescence quantum yield (in CCO) turned out to be 0.067; the photoluminescence quantum yield (in CO) turned out to be 0.066. The molecule further showed a photoluminescence quantum yield (in O) of 0.38.
`CCCCCCCCCCOc1ccc2c3c(oc2c1)C1=C2C(=O)N4C=Cc5c(oc6cc(OCCCCCCCCCC)ccc56)C4=C2C(=O)N1C=C3`: the photoluminescence quantum yield stood at 0.5 (in CN(C)C=O) and 0.7 (in ClC(Cl)Cl).
For `O=c1[nH]c(=O)n([C@@H]2O[C@H](CO)[C@@H](O)[C@H]2O)cc1-c1cc2ccccc2s1`, the photoluminescence quantum yield is, setting by setting: (in C1COCCO1) 0.06; (in CC#N) 0.034; (in CO) 0.047; (in O) 0.035.
As to `N#Cc1ccc(-c2ccc3c(c2)c2cc(-c4ccc(C#N)cc4)ccc2c2c3nc(-c3ccc(N(c4ccccc4)c4ccccc4)cc3)n2-c2ccccc2)cc1`, the photoluminescence quantum yield reads like this: (in C1CCOC1) 0.42; (in CC#N) 0.23; (in CCCCCC) 0.9; (in CCOCC) 0.59.
For the molecule `CCCCC#Cc1cccc2cc(CCCC)c3cc(-c4cc[b-]5c(c4)c(CCCC)cc4cccc(C#CCCCC)[n+]54)cc[b-]3[n+]12`, the photoluminescence quantum yield (in C1CCCCC1) turned out to be 0.12.
For `O=C1c2cc3ccccc3cc2C2=Nc3ccc4ccccc4[n+]3[B-](F)(F)N12`, the photoluminescence quantum yield (in ClCCl) stood at 0.93.
